Data on one compound can be found in patent US9512414B2, “Thermostable beta-glucosidase” (HONDA MOTOR CO., LTD., priority 2014, dated 2016).

In the assay the test system is thermostable β-glucosidase AR19G-228-1 (GH family 1), SEQ ID NO: 2, from hot spring soil metagenome AR19, expressed in E. coli. The assay is described as follows: Kinetics of PNPG hydrolysis by AR19G-228-1 β-glucosidase. The class given is biochemical. Conditions: 100° C., acetate buffer pH 5.5. An excerpt: The β-glucosidase activity using PNPG as a substrate of the enzyme protein (AR19G-228-1) encoded by the AR19G-228-1 gene was investigated. A solution prepared by dissolving PNPG (manufactured by Sigma-Aldrich Co. LLC.) in water and adjusting to a predetermined final concentration was used as the substrate solution. It should be noted that the PNPG substrate solutions used in the experiments described below all used the PNPG aqueous solution prepared by the above method. PNPG (manufactured by Sigma-Aldrich Co. LLC.) was used as the substrate for measuring the β-glucosidase activity. In the measurements, the purified enzyme obtained in section <7> above was diluted to a concentration of 0.0075 mg/mL with 0.05 M Tris-HCl buffer (pH 8.0) and used.
For the reaction at a temperature of 50 to 90° C., a Thermomixer (manufactured by the Eppendorf AG) was used, a sample tube with a volume of 1.5 mL was used as a reaction vessel, and the amount of reaction solution was set to 200 μL. The reaction solution was composed of 5 μL of diluted purified enzyme, 45 μL of purified water, 50 μL of 200 mM acetate buffer (pH 5.5), and 100 μL of 60 mM PNPG aqueous solution. […]
In all measurements, a mixed solution prepared by replacing the purified enzyme solution with 50 mM Tris-HCl buffer (pH 8.0) and then reacting the solution under the same conditions was used as a control. […] The amount of p-nitrophenol in the supernatant was determined by measuring the absorbance at 420 nm using a spectrophotometer, calculating the amount of p-nitrophenol in the supernatant using a calibration curve prepared with p-nitrophenol, and then determining the amount of p-nitrophenol produced by the enzymatic hydrolysis by the difference from the control. […] In addition, each measurement was performed for three independent experiments, and a mean value and a standard error were determined. […]

With `O=[N+]([O-])c1ccc(O[C@@H]2O[C@H](CO)[C@@H](O)[C@H](O)[C@H]2O)cc1` [PNPG, p-nitrophenyl-β-D-glucopyranoside], under “PNPG 0.5-100 mM”, the Michaelis-Menten constant (Km) (commonly the substrate concentration at which the rate is half of its maximum) worked out at 4.5 mM and the Vmax is recorded as 430.3 U/mg. Under “PNPG, calculated from Vmax and Km”, the Kcat/Km is 91500 M⁻¹ s⁻¹.
